Reference: US6426331B1, “Inhibitors of STAT function” (Tularik Inc., priority 1998, dated 2002)

Biological target: T1, STAT6 (Homo sapiens, UniProt P42226)
T1 sequence (P42226 1-847): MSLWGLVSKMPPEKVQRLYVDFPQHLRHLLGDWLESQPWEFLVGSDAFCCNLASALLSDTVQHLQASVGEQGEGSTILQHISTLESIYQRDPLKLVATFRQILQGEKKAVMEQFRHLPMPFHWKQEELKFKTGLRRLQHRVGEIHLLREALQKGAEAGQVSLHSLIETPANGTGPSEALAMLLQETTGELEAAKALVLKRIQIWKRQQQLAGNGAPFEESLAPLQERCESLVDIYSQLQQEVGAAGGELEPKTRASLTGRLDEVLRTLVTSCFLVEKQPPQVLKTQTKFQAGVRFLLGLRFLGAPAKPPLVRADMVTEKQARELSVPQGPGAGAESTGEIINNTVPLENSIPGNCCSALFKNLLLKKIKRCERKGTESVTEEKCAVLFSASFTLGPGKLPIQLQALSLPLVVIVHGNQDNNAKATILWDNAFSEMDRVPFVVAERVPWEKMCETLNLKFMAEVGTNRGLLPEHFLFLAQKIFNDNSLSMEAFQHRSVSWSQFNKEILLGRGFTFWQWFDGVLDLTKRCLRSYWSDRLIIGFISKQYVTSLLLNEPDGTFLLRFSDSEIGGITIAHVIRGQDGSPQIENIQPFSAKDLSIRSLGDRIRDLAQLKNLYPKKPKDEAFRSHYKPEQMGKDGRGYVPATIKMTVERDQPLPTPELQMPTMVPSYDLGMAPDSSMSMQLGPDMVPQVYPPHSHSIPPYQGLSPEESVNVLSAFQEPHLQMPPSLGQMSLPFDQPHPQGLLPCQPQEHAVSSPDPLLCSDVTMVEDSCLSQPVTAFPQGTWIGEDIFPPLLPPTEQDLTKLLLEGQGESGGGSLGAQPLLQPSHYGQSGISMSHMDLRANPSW
Test: Inhibition of STAT6 binding (duplex formation)
Settings: STAT6 binding
Protocol: The compounds of the present invention can be evaluated for STAT binding activity using methods such as those described in U.S. Pat. No. 6,207,391 (for STAT6 binding). Other assays for STAT binding can be found in, for example, U.S. Pat. Nos. 5,618,693, 5,639,858 and 5,756,700.
Using methods similar to those described in Examples 1 and 2, the compounds provided in Table 1 were prepared and evaluated as inhibitors of STAT6 binding (duplex formation). The assay is described in U.S. Pat. No. 6,207,391, filed Mar. 31, 1998. In each of the tables below: a + symbol indicates and IC50 of >100 μM; a ++ symbol indicates and IC50 of 50-100 μM; a +++ symbol indicates and IC50 of 1-50 μM; and a ++++ symbol indicates and IC50 of <1.0 μM.

| SMILES | IC50 (Table 4) [nM] | IC50 (Table 5) [nM] |
| --- | --- | --- |
| CC(C)(C)c1ccc(CN(C(=O)C2CCCN2C(=O)C(NC(=O)C=Cc2ccc(OP(=O)(O)O)cc2)C(C)(C)C)c2ccccc2)cc1 (stereo not drawn) [drawing 70: H, 4-t-butyl] | 1000 to 50000 |  |
| CC(=O)NCc1cccc(CN(Cc2cccc(C(N)=O)c2)C(=O)C2CCCN2C(=O)C(NC(=O)C=Cc2ccc(OP(=O)(O)O)cc2)C(C)(C)C)c1 (stereo not drawn) [drawing 71: 3-CONH2,3-CH2NHAc] |  | 1000 to 50000 |
| CC(=O)NCc1cccc(CN(Cc2ccc(C(N)=O)cc2)C(=O)C2CCCN2C(=O)C(NC(=O)C=Cc2ccc(OP(=O)(O)O)cc2)C(C)(C)C)c1 (stereo not drawn) [drawing 71: 4-CONH2,3-CH2NHAc] |  | < 1000 |
| CC(=O)NCc1ccc(CN(Cc2ccc(C(N)=O)cc2)C(=O)C2CCCN2C(=O)C(NC(=O)C=Cc2ccc(OP(=O)(O)O)cc2)C(C)(C)C)cc1 (stereo not drawn) [drawing 71: 4-CONH2,4-CH2NHAc] |  | < 1000 |
| CC(C)(C)C(NC(=O)C=Cc1ccc(OP(=O)(O)O)cc1)C(=O)N1CCCC1C(=O)N(Cc1ccc(C#N)cc1)Cc1ccc(C(N)=O)cc1 (stereo not drawn) [drawing 71: 4-CONH2,4-CN] |  | < 1000 |
| CC(C)(C)C(NC(=O)C=Cc1ccc(OP(=O)(O)O)cc1)C(=O)N1CCCC1C(=O)N(Cc1ccccc1)Cc1ccc(C(N)=O)cc1 (stereo not drawn) [drawing 71: 4-CONH2, H] |  | < 1000 |
